Source: patent US7205295B2, “Benzoxazin-3-ones and derivatives thereof as therapeutic agents” (Warner-Lambert Company LLC, priority 2002, dated 2007)

These molecules were tested against T1, PI3Kγ (p101/p110γ protein) (Homo sapiens, UniProt P48736) (assay: PI3Kγ In Vitro Kinase Assay). Conditions: purified recombinant p101/p110γ with G protein β1/γ2 subunits; 20 μM ATP, 25 μM PIP2; 20 minutes at room temperature.
T1 construct: HA; made in house; host or cells: Spodoptera frugiperda (Sf9) cells, baculovirus co-infection
T1 sequence (P48736 whole entry, species assumed): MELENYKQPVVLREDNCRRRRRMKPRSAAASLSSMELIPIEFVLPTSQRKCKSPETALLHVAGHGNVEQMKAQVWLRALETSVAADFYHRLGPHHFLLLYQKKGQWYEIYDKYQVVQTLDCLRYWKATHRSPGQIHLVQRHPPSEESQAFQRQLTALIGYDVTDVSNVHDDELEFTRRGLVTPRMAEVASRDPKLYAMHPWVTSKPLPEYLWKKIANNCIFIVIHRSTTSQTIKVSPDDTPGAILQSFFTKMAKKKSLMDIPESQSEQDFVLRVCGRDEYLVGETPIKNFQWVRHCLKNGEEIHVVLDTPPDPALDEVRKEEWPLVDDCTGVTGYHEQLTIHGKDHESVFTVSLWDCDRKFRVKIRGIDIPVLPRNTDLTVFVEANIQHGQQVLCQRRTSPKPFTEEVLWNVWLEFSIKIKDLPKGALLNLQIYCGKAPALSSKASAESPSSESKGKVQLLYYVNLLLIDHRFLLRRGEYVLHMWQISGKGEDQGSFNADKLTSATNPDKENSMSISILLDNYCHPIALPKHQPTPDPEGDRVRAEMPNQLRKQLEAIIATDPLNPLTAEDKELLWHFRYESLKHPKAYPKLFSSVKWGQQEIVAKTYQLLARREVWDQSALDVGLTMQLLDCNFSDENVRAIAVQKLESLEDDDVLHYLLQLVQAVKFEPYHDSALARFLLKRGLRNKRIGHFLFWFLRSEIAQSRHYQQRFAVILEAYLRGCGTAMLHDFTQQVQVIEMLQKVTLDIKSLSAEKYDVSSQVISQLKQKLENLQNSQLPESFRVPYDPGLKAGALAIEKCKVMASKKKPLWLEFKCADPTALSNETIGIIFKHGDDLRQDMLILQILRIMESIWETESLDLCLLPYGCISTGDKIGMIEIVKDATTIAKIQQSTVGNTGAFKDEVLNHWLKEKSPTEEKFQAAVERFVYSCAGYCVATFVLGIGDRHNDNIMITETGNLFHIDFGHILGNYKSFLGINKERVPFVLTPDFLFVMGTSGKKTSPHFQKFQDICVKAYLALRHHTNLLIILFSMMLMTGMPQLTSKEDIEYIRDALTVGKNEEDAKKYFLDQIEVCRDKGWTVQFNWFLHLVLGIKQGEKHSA
T1 sequence (Q8WYR1 whole entry partner, species assumed): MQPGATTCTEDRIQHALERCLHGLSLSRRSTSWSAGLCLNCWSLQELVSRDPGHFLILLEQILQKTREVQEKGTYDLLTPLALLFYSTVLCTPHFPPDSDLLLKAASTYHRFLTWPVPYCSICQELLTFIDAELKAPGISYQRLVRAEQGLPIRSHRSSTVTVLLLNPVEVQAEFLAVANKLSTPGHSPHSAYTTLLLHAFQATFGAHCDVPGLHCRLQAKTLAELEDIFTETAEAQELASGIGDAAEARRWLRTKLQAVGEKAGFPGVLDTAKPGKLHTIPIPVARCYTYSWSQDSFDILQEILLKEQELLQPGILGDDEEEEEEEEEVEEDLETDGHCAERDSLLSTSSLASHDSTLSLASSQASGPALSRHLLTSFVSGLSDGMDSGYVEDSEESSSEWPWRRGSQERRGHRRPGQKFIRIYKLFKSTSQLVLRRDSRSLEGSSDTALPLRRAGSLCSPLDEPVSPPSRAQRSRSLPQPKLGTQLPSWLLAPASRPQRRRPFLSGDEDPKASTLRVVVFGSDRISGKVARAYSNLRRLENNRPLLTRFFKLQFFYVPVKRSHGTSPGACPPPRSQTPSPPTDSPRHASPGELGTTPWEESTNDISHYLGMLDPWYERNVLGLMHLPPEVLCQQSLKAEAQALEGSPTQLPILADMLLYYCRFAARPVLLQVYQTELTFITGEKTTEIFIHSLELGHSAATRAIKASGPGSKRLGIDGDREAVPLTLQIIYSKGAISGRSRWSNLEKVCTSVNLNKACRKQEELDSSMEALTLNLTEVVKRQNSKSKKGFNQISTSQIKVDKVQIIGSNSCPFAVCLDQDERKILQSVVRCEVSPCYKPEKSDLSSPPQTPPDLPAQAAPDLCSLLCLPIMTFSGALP
Type: biochemical
Method: Spodtera frugiperda cells, grown in ESF921 media, were coinfected with baculovirus expressing a glu-tagged p101 and baculovirus expressing an HA-tagged p110γ, at a 3:1 ratio of p101 baculovirus to p110γ baculovirus. Sf9 cells were grown to 1×10^7 total cells/mL in 10L bioreactors and harvested 48-72 hours post infection. Samples of infected cells were then tested for expression of p101/p110γ PI3 kinase by immunoprecipitation and Western Blot analysis methods (see below). […] NaCl was added to 150 mM, and sodium cholate was added to 1% and mixed for another 45 minutes. The lysates were clarified by centrifugation for 25 minutes at 14,000 rpm. The lysates were then loaded over anti-glu-linked Protein-G Sepaharose beads (Covance Research Products, Richmond, Calif.) using 20 mL resin/50 g cell paste. […] PI3Kγ was eluted with 6 column volumes of wash buffer that contain 100 μg/mL of a peptide that competes for binding of the glu tag. […] The fractions were stored at -80° C. until further use. Spodtera frugiperda cells were coinfected with baculovirus expressing a glu-tagged G protein β1 and baculovirus expressing a G protein […] at a 1:1 ratio of glu-tagged G protein β1 baculovirus to G protein β2 baculovirus. Sf9 cells are grown in 10 L bioreactors and harvested 48-72 hours post infection. Samples of infected cells were tested for G protein β1/β2 expression by Western Blot analysis, as described below. Cell lysates were homogenized and loaded onto a column of glu-tagged beads as in Biological Example 1 and competed off the column with a glu peptide as described in Biological Example 1. The inhibitory properties of the compounds in Table 1 were assayed in an in vitro PI3K assay. In a 96-well polypropylene plate, each well was spotted with 2 μL of […] the desired final concentration of compound in DMSO. Purified recombinant p101/p110γ protein (0.03 μg; 2.7 nM) and G protein β1/γ2 subunits (0.09 μg; 57.7 nM) for each reaction was combined in the assay buffer (30 mM HEPES, 100 mM NaCl, 1 mM EGTA, and 1 mM DTT). ATP and [γ-^32P-ATP] (0.09 μCi) were added to this mixture so that the final ATP concentration in the reaction was 20 μM. Lipid micelles were formed by sonicating phosphatidylinositol-4,5-diphosphate (PIP2), phosphatidylethanolamine (PE), and Na-cholate in the assay buffer for 10 minutes, adding MgCL2 and incubating on ice for 20 minutes, for final concentrations of 25 μM PIP2, 300 [M PE, 0.02% Na-cholate, and 10 mM MgCl2 in the reaction. The reactions were started by adding equal volumes lipid and enzyme mixture in a total volume of 50 μL, allowed to run for 20 minutes at room temperature, and stopped with 100 μL 75 mM H3PO4. The lipid product was transferred to a glass fiber filter plate and washed with 75 mM H3PO4 several times. The presence of radioactive lipid product (PIP3) was measured by adding Wallac Optiphase mix to each well and counting in a Wallac 1450 Trilux plate reader (PerkinElmer Life Sciences Inc., Boston, Mass. 02118).

**Q.** With `O=C1NC(=S)SC1=Cc1ccc2c(c1)N(Cc1cc(Br)cc(Br)c1)C(=O)CO2` [Example 217, 4-(3,5-Dibromo-benzyl)-6-(4-oxo-2-thioxo-thiazolidin-5-ylidenemethyl)-4H-1,4-benzoxazin-3-one] as the molecule, how does the IC50 read?
**A.** 42 nM

**Q.** For `Cc1cc(C=C2SC(=S)NC2=O)cc2c1OCC(=O)N2Cc1cc(C(C)(C)C)nc(C(C)(C)C)c1` [Example 221, 4-(2,6-Di-tert-butyl-pyridin-4-ylmethyl)-8-methyl-6-(4-oxo-2-thioxo-thiazolidin-5-ylidenemethyl)-4H-1,4-benzoxazin-3-one], which IC50 is on record?
**A.** 895 nM

**Q.** For `O=C1NC(=S)SC1=Cc1ccc2c(c1)N(Cc1ccc(CN3CCC4(CCCCC4)CC3)cc1)C(=O)CO2` [Example 238, 4-[4-(3-Aza-spiro[5.5]undec-3-ylmethyl)-benzyl]-6-(4-oxo-2-thioxo-thiazolidin-5-ylidenemethyl)-4H-benzo[1,4]oxazin-3-one], which IC50 is on record?
**A.** 36 nM

**Q.** Which IC50 does the source give for `O=C1NC(=S)SC1=Cc1ccc2c(c1)N(Cc1cc(C(F)(F)F)cc(C(F)(F)F)c1)C(=O)CO2` [Example 29, 4-(3,5-Bis-trifluoromethyl-benzyl)-6-(4-oxo-2-thioxo-thiazolidin-5-ylidenemethyl)-4H-1,4-benzoxazin-3-one] here?
**A.** 31 nM

**Q.** How did the IC50 turn out when `O=C1NC(=O)C(=Cc2ccc3c(c2)N(Cc2ccc(CN4CCC5(CCCCC5)CC4)cc2)C(=O)CO3)S1` [Example 239, 5-{4-[4-(3-Aza-spiro[5.5]undec-3-ylmethyl)-benzyl]-3-oxo-3,4-dihydro-2H-benzo[1,4]oxazin-6-ylmethylene}-thiazolidine-2,4-dione] was run?
**A.** 39 nM

**Q.** For “4-Methyl-6-(4-oxo-2-thioxo-oxazolidin-5-ylidenemethyl)-4a,8a-dihydro-4H-benzo[1,4]oxazin-3-one, Potassium Salt [Example 204]”, which IC50 is on record?
**A.** 16 nM

**Q.** Which IC50 does the source give for `O=C1NC(=O)C(=Cc2ccc3c(c2)N(Cc2ccc(F)c(Cl)c2)C(=O)CO3)S1` [Example 308, 5-[4-(3-Chloro-4-fluoro-benzyl)-3-oxo-3,4-dihydro-2H-benzo[1,4]oxazin-6-ylmethylene]-thiazolidine-2,4-dione] here?
**A.** 1 nM

**Q.** How did the IC50 turn out when `O=C1NC(=O)C(=Cc2ccc3c(c2)N(Cc2cccc(Oc4ccccc4F)c2)C(=O)CO3)S1` [Example 307] was run?
**A.** 5 nM

**Q.** `CC(C)(O)c1cc(CN2C(=O)COc3ccc(C=C4SC(=S)NC4=O)cc32)ccc1F` [Example 304, 4-[4-Fluoro-3-(1-hydroxy-1-methyl-ethyl)-benzyl]-6-(4-oxo-2-thioxo-thiazolidin-5-ylidenemethyl)-4H-benzo[1,4]oxazin-3-one; Compound with Ethane-1,2-diamine] was tested. Which IC50 did it give?
**A.** 8 nM

**Q.** With `CC(C)S(=O)(=O)c1cccc(CN2C(=O)COc3ccc(C=C4SC(=S)NC4=O)cc32)c1` [Example 253, 6-(4-Oxo-2-thioxo-thiazolidin-5-ylidenemethyl)-4-[3-(propane-2-sulfonyl)-benzyl]-4H-1,4-benzoxazin-3-one] as the molecule, how does the IC50 read?
**A.** 16 nM

**Q.** `O=C1NC(=S)SC1=Cc1ccc2c(c1)N(CC1CC3C=CC1C3)C(=O)CO2` (stereo not shown) [Example 171, 4-Bicyclo[2.2.1]hept-5-en-2-ylmethyl-6-(4-oxo-2-thioxo-thiazolidin-5-ylidenemethyl)-4H-1,4-benzoxazin-3-one] was tested. Which IC50 did it give?
**A.** 15 nM

**Q.** For `O=C1NC(=S)S/C1=C\c1cnc2c(c1)N(CCc1ccccc1)C(=O)CO2` [Example 267, 7-[4-Oxo-2-thioxo-thiazolidin-(5Z)-ylidenemethyl]-1-phenethyl-1H-pyrido[2,3-b][1,4]oxazin-2-one], which IC50 is on record?
**A.** 460 nM

**Q.** How did the IC50 turn out when `CC(C)(O)c1cc(CN2C(=O)COc3c(F)cc(C=C4SC(=S)NC4=O)cc32)ccc1Cl` [Example 331, 4-[4-Chloro-3-(1-hydroxy-1-methyl-ethyl)-benzyl]-8-fluoro-6-(4-oxo-2-thioxo-thiazolidin-5-ylidenemethyl)-4H-1,4-benzoxazin-3-one; Compound with Ethane-1,2-diamine] was run?
**A.** 9 nM

**Q.** Which IC50 does the source give for `CC(C)(C)OC(=O)CNC(=O)c1cc(CN2C(=O)COc3ccc(C=C4SC(=S)NC4=O)cc32)cc(C(C)(C)C)c1` [Example 59, {3-tert-Butyl-5-[3-oxo-6-(4-oxo-2-thioxo-thiazolidin-5-ylidenemethyl)-2,3-dihydro-1,4-benzoxazin-4-ylmethyl]-benzoylamino}-acetic acid tert-butyl ester] here?
**A.** 70 nM

**Q.** `O=C1NC(=S)SC1=Cc1cc(F)c2c(c1)N(CCCN1CCCCC1)C(=O)CO2` [Example 243] was tested. Which IC50 did it give?
**A.** 180 nM

**Q.** For `Cc1cc(CN2C(=O)COc3ccc(C=C4SC(=S)NC4=O)cc32)c(C(F)(F)F)o1` [Example 324, 4-(5-Methyl-2-triflouromethyl-furan-3-ylmethyl)-6-(4-oxo-2-thioxo-thiazolidin-5-ylidenemethyl)-4H-benzo[1,4]oxazin-3-one], which IC50 is on record?
**A.** 33 nM

**Q.** `O=C1NC(=S)SC1=Cc1ccc2c(c1)N(CCCCCc1ccccc1)C(=O)CO2` [Example 175, 6-(4-Oxo-2-thioxo-thiazolidin-5-ylidenemethyl)-4-(5-phenyl-pentyl)-4H-1,4-benzoxazin-3-one] was tested. Which IC50 did it give?
**A.** 4 nM

**Q.** For `O=C1NC(=S)OC1=Cc1ccc2c(c1)N(Cc1ccc(Cl)c(C(F)(F)F)c1)C(=O)CO2` [Example 196, 4-(4-Chloro-3-trifluoromethyl-benzyl)-6-(4-oxo-2-thioxo-oxazolidin-5-ylidenemethyl)-4H-1,4-benzoxazin-3-one], which IC50 is on record?
**A.** 26 nM

**Q.** Which IC50 does the source give for `CN1CCN(Cc2cccc(CN3C(=O)COc4ccc(C=C5SC(=S)NC5=O)cc43)c2)CC1` [Example 48, 4-[3-(4-Methyl-piperazin-1-ylmethyl)-benzyl]-6-(4-oxo-2-thioxo-thiazolidin-5-ylidenemethyl)-4H-1,4-benzoxazin-3-one] here?
**A.** 42 nM

**Q.** With `O=C1NC(=S)SC1=Cc1ccc2c(c1)N(Cc1cccc(C(=O)O)c1)C(=O)CO2` [Example 17, 3-[3-Oxo-6-(4-oxo-2-thioxo-thiazolidin-5-ylidenemethyl)-2,3-dihydro-1,4-benzoxazin-4-ylmethyl]-benzoic acid] as the molecule, how does the IC50 read?
**A.** 9 nM

**Q.** How did the IC50 turn out when `O=C1NC(=S)SC1=Cc1ccc2c(c1)N(Cc1cccc(OC(F)(F)F)c1)C(=O)CO2` [Example 156, 6-(4-Oxo-2-thioxo-thiazolidin-5-ylidenemethyl)-4-(3-trifluoromethoxy-benzyl)-4H-1,4-benzoxazin-3-one] was run?
**A.** 21 nM

**Q.** With `O=C1NC(=S)SC1=Cc1ccc2c(c1)N(Cc1cc(-c3ccccc3)cc(-c3ccccc3)c1)C(=O)CO2` [Example 43, 6-(4-Oxo-2-thioxo-thiazolidin-5-ylidenemethyl)-4-1,1′,3′,1″-terphenyl-5′-ylmethyl-4H-1,4-benzoxazin-3-one] as the molecule, how does the IC50 read?
**A.** 1440 nM

**Q.** Which IC50 does the source give for `Cc1cc(C)cc(CN2C(=O)COc3ccc(C=C4SC(=S)NC4=O)cc32)c1` [Example 14, 4-(3,5-Dimethyl-benzyl)-6-(4-oxo-2-thioxo-thiazolidin-5-ylidenemethyl)-4H-1,4-benzoxazin-3-one] here?
**A.** 5 nM

**Q.** With `O=C1NC(=S)SC1=Cc1ccc2c(c1)N(Cc1ccc(OCc3ccccc3)cc1)C(=O)CO2` [Example 23, 4-(4-Benzyloxy-benzyl)-6-(4-oxo-2-thioxo-thiazolidin-5-ylidenemethyl)-4H-1,4-benzoxazin-3-one] as the molecule, how does the IC50 read?
**A.** 5 nM

**Q.** Which IC50 does the source give for `O=C1NC(=S)S/C1=C\c1ccc2oc(=O)n(Cc3ccc(Cl)c(Cl)c3)c2c1` [Example 286, 3-(3,4-Dichloro-benzyl)-5-[4-oxo-2-thioxo-thiazolidin-(5Z)-ylidenemethyl]-3H-benzooxazol-2-one] here?
**A.** 220 nM

**Q.** For `O=C1NC(=S)SC1=Cc1cc(F)c2c(c1)N(Cc1ccc(CN3CCCCC3)cc1)C(=O)CO2` [Example 73, 8-Fluoro-6-(4-oxo-2-thioxo-thiazolidin-5-ylidenemethyl)-4-(4-piperidin-1-ylmethyl-benzyl)-4H-1,4-benzoxazin-3-one], which IC50 is on record?
**A.** 7 nM

**Q.** For `NC(=O)CN1C(=O)COc2ccc(C=C3SC(=S)NC3=O)cc21` [Example 141, 2-[3-Oxo-6-(4-oxo-2-thioxo-thiazolidin-5-ylidenemethyl)-2,3-dihydrobenzo[1,4]oxazin-4-yl]-acetamide], which IC50 is on record?
**A.** 860 nM

**Q.** Which IC50 does the source give for `O=C1NC(=S)O/C1=C\c1ccc2c(c1)N(Cc1cc(C(F)(F)F)cc(C(F)(F)F)c1)C(=O)CO2` [Example 271, 4-(3,5-Bis-trifluoromethyl-benzyl)-6-[4-oxo-2-thioxo-oxazolidin-(5Z)-ylidenemethyl]-4H-benzo[1,4]oxazin-3-one] here?
**A.** 101 nM
